# Like-named read-outs stand apart in the source and are kept apart here.
# What was measured:
# [1] = test system: Ovarian Cancer Cells (A2780); experiment: Clonogenic assay (continuous co-incubation), ovarian cancer cells A2780; format: cell-based
# Method: (§1) The effects of the combination of belinostat and trabectedin were studied in clonogenic assays. The clonogenic assay assesses anti-clonogenic activity of tumour cells. The “target” in clonogenic assay is all biochemical and molecular elements or alterations characteristic of tumour cells rather than specific single targets.
# (§2) Cells were grown for at least 1 week after thawing in standard media to obtain a sub-confluent culture. The 3.3% agar was boiled for at least 60 minutes in a water bath on an electrical heating plate (30 mL PBS+990 mg Bacto agar). The 90 mL growth medium (RPMI-1640+10% FCS) was heated in a water bath at 37° C. Cells were centrifuged in 50 mL centrifuge tubes at 1200 rpm for 5 minutes at room temperature.
# (§3) Drug (belinostat or trabectedin) was dissolved and diluted with growth medium or DMSO to a concentration of […] the final concentration.
# (§4) Cells were suspended in 7 mL growth medium using a 1 mL syringe and an 18 gauge needle by pumping the solution up and down 15 times. Cells were stained with Nigrosin (0.3 mL cells+0.3 mL 0.1% Nigrosin in PBS), and counted after 8 minutes using a Fuchs-Rosenthal counting chamber.
# (§5) Then, 10 mL agar and 90 mL growth medium was mixed (0.33%) and heated in a water bath at 37° C. 0.35 mL cell suspension was transferred to 10 mL conical centrifuge tubes using a dispenser. 35 μL drug (belinostat or trabectedin) was added. 3.15 mL agar/medium was added to each tube (maximum 8 tubes at the time).
# (§6) For each belinostat combination tested series of 7 titrations corresponding to approximately 30, 40, 50, 60, 70, 80, 90% inhibition was tested as mono-therapy and in combination.
# (§7) The Combination Index (CI) provides a measure of the interaction: A CI value of less than 1 indicates synergy, a CI value of 1 indicates an additive effect, and a CI value of greater than 1 indicates antagonism.
# Sarcoma Cells (MesSa) = experiment: Clonogenic assay (continuous co-incubation), sarcoma cells MesSa; format: cell-based, human
# Method: as §1, §2, §3, §4, §5, §6, §7
# [2] = test system: MesSa human sarcoma xenograft; format: in vivo
# Method: The xenograft model used the MesSa cell line (ATCC: CRL-1976 human sarcoma cells) (in vitro cell passage number 67 from frozen stock (number 65) on day 5). Tumour cells (1×10^7) (trypsinated) (100 μL in 100 μL matrigel) were injected subcutaneously (s.c.) into the right flank of each mouse, with one node per mouse. The time from cell dilution to the end of injection was 24 minutes. Each mouse was anaesthetised with Hypnorm/Dormicum subcutaneously (s.c.) or isofluran (by inhalation) when the tumour cells were injected.
# Four groups, each of 12 mice, were treated with vehicle, belinostat only, trabectedin only, or both belinostat and trabectedin, for three weeks, as summarised in the following table. On days that belinostat was administered, it was administered twice, with a 3 hour interval. On days that both belinostat and trabectedin were administered, the trabectedin was administered between the two belinostat administrations.
# Mice were enrolled in treatment groups following confirmation of xenograft take. Both tumour diameter and body weight were measured on days: 0, 3, 7, 10, 14, 17, and 21. Animals were sacrificed (by cervical dislocation) on day 21. Tumour weight was measured on day 21 (following sacrifice).
# “T/C%” denotes tumour weight following treatment as a percent of control, using Mann-Whitney statistical analysis. The results (median tumour volume) are also illustrated in FIG. 4.
# “T/C%” denotes tumour weight following treatment as a percent of control, using Mann-Whitney statistical analysis. The results (median tumour weight) are also illustrated in FIG. 5.
# [3] = test system: Osteocarcinoma Cells (Saos-2); experiment: Clonogenic assay (continuous co-incubation), osteocarcinoma cells Saos-2; format: cell-based
# Method: as §1, §2, §3, §4, §5, §6, §7
# soft-tissue sarcoma = settings: patients with soft-tissue sarcoma, pivotal clinical trial; cited from earlier work
# [4] = physiological pH; cited from earlier work
# [5] = day 0, trabectedin 0.1 mg/kg i.v. once, days 0, 3, 7, 10
# [6] = day 4, trabectedin 0.1 mg/kg i.v. once, days 0, 3, 7, 10
# [7] = day 7, trabectedin 0.1 mg/kg i.v. once, days 0, 3, 7, 10
# [8] = day 10, trabectedin 0.1 mg/kg i.v. once, days 0, 3, 7, 10
# [9] = day 14, trabectedin 0.1 mg/kg i.v. once, days 0, 3, 7, 10
# [10] = day 17, trabectedin 0.1 mg/kg i.v. once, days 0, 3, 7, 10
# [11] = day 0, belinostat 40 mg/kg i.p. twice daily, days 0-4, 7-11, 14-18
# [12] = day 4, belinostat 40 mg/kg i.p. twice daily, days 0-4, 7-11, 14-18
# [13] = day 7, belinostat 40 mg/kg i.p. twice daily, days 0-4, 7-11, 14-18
# [14] = day 10, belinostat 40 mg/kg i.p. twice daily, days 0-4, 7-11, 14-18
# [15] = day 14, belinostat 40 mg/kg i.p. twice daily, days 0-4, 7-11, 14-18
# [16] = day 17, belinostat 40 mg/kg i.p. twice daily, days 0-4, 7-11, 14-18
smiles,measurement,setting,value
"COc1cc2c(cc1O)CCN[C@]21CS[C@@H]2c3c(OC(C)=O)c(C)c4c(c3[C@H](COC1=O)N1[C@@H]2[C@H]2c3c(cc(C)c(OC)c3O)C[C@@H]([C@@H]1O)N2C)OCO4 (relative stereo) [Trabectedin, spiro[6,16-(epithiopropanoxymethano)-7,13-imino-12H-1,3-dioxolo[7,8]isoquino[3,2-b][3]benzazocine-20,1′(2′H)-isoquinolin]-19-one, 5-(acetyloxy)-3′,4′,6,6a,7,13,14,16-octahydro-6′,8,14-trihydroxy-7′,9-dimethoxy-4,10,23-trimethyl-, [6R-(6α,6aβ,7β,13β,14β,16α,20R*)]]",Trabectedin Alone (% survival),[1]; trabectedin 0.66 nM,75.33%
same,Trabectedin Alone (% survival),[1]; trabectedin 0.73 nM,62.12%
same,Trabectedin Alone (% survival),[1]; trabectedin 0.80 nM,49.62%
same,Trabectedin Alone (% survival),[1]; trabectedin 0.84 nM,44.20%
same,Trabectedin Alone (% survival),[1]; trabectedin 0.88 nM,44.06%
same,Trabectedin Alone (% survival),[1]; trabectedin 0.92 nM,36.20%
same,Trabectedin Alone (% survival),[1]; trabectedin 0.96 nM,28.69%
same,Trabectedin Alone (% survival),Sarcoma Cells (MesSa); trabectedin 0.20 nM,86.17%
same,Trabectedin Alone (% survival),Sarcoma Cells (MesSa); trabectedin 0.46 nM,87.51%
same,Trabectedin Alone (% survival),Sarcoma Cells (MesSa); trabectedin 0.64 nM,81.84%
same,Trabectedin Alone (% survival),Sarcoma Cells (MesSa); trabectedin 0.75 nM,67.10%
same,Trabectedin Alone (% survival),Sarcoma Cells (MesSa); trabectedin 0.86 nM,42.38%
same,Trabectedin Alone (% survival),Sarcoma Cells (MesSa); trabectedin 0.97 nM,33.98%
same,Trabectedin Alone (% survival),Sarcoma Cells (MesSa); trabectedin 1.1 nM,26.55%
same,"Median Tumour Volume, Trabectedin Only",[2]; [5],87 mm^3
same,"T/C % (tumour volume), Trabectedin Only",[2]; [5],100%
same,"Median Tumour Volume, Trabectedin Only",[2]; [6],87 mm^3
same,"T/C % (tumour volume), Trabectedin Only",[2]; [6],100%
same,"Median Tumour Volume, Trabectedin Only",[2]; [7],57 mm^3
same,"T/C % (tumour volume), Trabectedin Only",[2]; [7],50%
same,"Median Tumour Volume, Trabectedin Only",[2]; [8],65 mm^3
same,"T/C % (tumour volume), Trabectedin Only",[2]; [8],29%
same,"Median Tumour Volume, Trabectedin Only",[2]; [9],76 mm^3
same,"T/C % (tumour volume), Trabectedin Only",[2]; [9],31%
same,"Median Tumour Volume, Trabectedin Only",[2]; [10],134 mm^3
same,"T/C % (tumour volume), Trabectedin Only",[2]; [10],30%
same,"Median Tumour Volume, Trabectedin Only","[2]; day 21, trabectedin 0.1 mg/kg i.v. once, days 0, 3, 7, 10",167 mm^3
same,"T/C % (tumour volume), Trabectedin Only","[2]; day 21, trabectedin 0.1 mg/kg i.v. once, days 0, 3, 7, 10, p=0.01",25%
same,"T/C % (tumour weight), Trabectedin Alone","[2]; day 21, trabectedin 0.1 mg/kg i.v. once, days 0, 3, 7, 10, p=0.027",30%
same,reduction in growth (tumour volume),"[2]; day 21, trabectedin 0.1 mg/kg, once daily, i.v., days 0, 3, 7, 10, p=0.01",75%
same,reduction in growth (tumour weight),"[2]; day 21, trabectedin 0.1 mg/kg, once daily, i.v., days 0, 3, 7, 10, p=0.027",70%
same,tumour growth delay (in words),"[2]; trabectedin 0.1 mg/kg, once daily, i.v., days 0, 3, 7, 10 of a 3 week cycle",significant tumour growth delay
same,Trabectedin Alone (% survival),[3]; trabectedin 0.005 nM,79.99%
same,Trabectedin Alone (% survival),[3]; trabectedin 0.010 nM,77.74%
same,Trabectedin Alone (% survival),[3]; trabectedin 0.09 nM,74.94%
same,Trabectedin Alone (% survival),[3]; trabectedin 0.13 nM,69.14%
same,Trabectedin Alone (% survival),[3]; trabectedin 0.17 nM,60.61%
same,Trabectedin Alone (% survival),[3]; trabectedin 0.21 nM,65.08%
same,Trabectedin Alone (% survival),[3]; trabectedin 0.26 nM,49.99%
same,time-to-tumour-progression (TTP),soft-tissue sarcoma,3.9 months
"O=C(/C=C/c1cccc(S(=O)(=O)Nc2ccccc2)c1)NO [Belinostat, (E)-N-hydroxy-3-(3-phenylsulfamoyl-phenyl)-acrylamide]",Belinostat Alone (% survival),[1]; belinostat 0.04 μM,97.74%
same,Belinostat Alone (% survival),[1]; belinostat 0.36 μM,82.64%
same,Belinostat Alone (% survival),[1]; belinostat 0.47 μM,65.30%
same,Belinostat Alone (% survival),[1]; belinostat 0.56 μM,31.60%
same,Belinostat Alone (% survival),[1]; belinostat 0.63 μM,15.82%
same,Belinostat Alone (% survival),[1]; belinostat 0.68 μM,7.19%
same,Belinostat Alone (% survival),[1]; belinostat 0.73 μM,2.42%
same,Belinostat Alone (% survival),Sarcoma Cells (MesSa); belinostat 0.27 μM,88.48%
same,Belinostat Alone (% survival),Sarcoma Cells (MesSa); belinostat 0.37 μM,68.82%
same,Belinostat Alone (% survival),Sarcoma Cells (MesSa); belinostat 0.48 μM,57.06%
same,Belinostat Alone (% survival),Sarcoma Cells (MesSa); belinostat 0.57 μM,42.92%
same,Belinostat Alone (% survival),Sarcoma Cells (MesSa); belinostat 0.66 μM,37.33%
same,Belinostat Alone (% survival),Sarcoma Cells (MesSa); belinostat 0.80 μM,17.90%
same,Belinostat Alone (% survival),Sarcoma Cells (MesSa); belinostat 1.0 μM,2.75%
same,tumour growth delay (in words),"[2]; belinostat 40 mg/kg, twice daily, i.p., 5 days per week for 3 weeks",some but not significant tumour growth delay
same,"Median Tumour Volume, Belinostat Only",[2]; [11],65 mm^3
same,"T/C % (tumour volume), Belinostat Only",[2]; [11],75%
same,"Median Tumour Volume, Belinostat Only",[2]; [12],71 mm^3
same,"T/C % (tumour volume), Belinostat Only",[2]; [12],81%
same,"Median Tumour Volume, Belinostat Only",[2]; [13],76 mm^3
same,"T/C % (tumour volume), Belinostat Only",[2]; [13],67%
same,"Median Tumour Volume, Belinostat Only",[2]; [14],87 mm^3
same,"T/C % (tumour volume), Belinostat Only",[2]; [14],39%
same,"Median Tumour Volume, Belinostat Only",[2]; [15],144 mm^3
same,"T/C % (tumour volume), Belinostat Only",[2]; [15],59%
same,"Median Tumour Volume, Belinostat Only",[2]; [16],295 mm^3
same,"T/C % (tumour volume), Belinostat Only",[2]; [16],66%
same,"Median Tumour Volume, Belinostat Only","[2]; day 21, belinostat 40 mg/kg i.p. twice daily, days 0-4, 7-11, 14-18",449 mm^3
same,"T/C % (tumour volume), Belinostat Only","[2]; day 21, belinostat 40 mg/kg i.p. twice daily, days 0-4, 7-11, 14-18, p=0.10",67%
same,"T/C % (tumour weight), Belinostat Alone","[2]; day 21, belinostat 40 mg/kg i.p. twice daily, days 0-4, 7-11, 14-18, p=0.180",77%
same,reduction in growth (tumour volume),"[2]; day 21, belinostat 40 mg/kg, twice daily, i.p., 5 days per week for 3 weeks, p=0.10",33%
same,reduction in growth (tumour weight),"[2]; day 21, belinostat 40 mg/kg, twice daily, i.p., 5 days per week for 3 weeks, p=0.180",23%
same,solubility in water,[4],sparingly soluble
same,Belinostat Alone (% survival),[3]; belinostat 0.065 μM,86.96%
same,Belinostat Alone (% survival),[3]; belinostat 0.10 μM,66.47%
same,Belinostat Alone (% survival),[3]; belinostat 0.115 μM,69.29%
same,Belinostat Alone (% survival),[3]; belinostat 0.13 μM,74.52%
same,Belinostat Alone (% survival),[3]; belinostat 0.145 μM,45.50%
same,Belinostat Alone (% survival),[3]; belinostat 0.19 μM,38.34%
same,Belinostat Alone (% survival),[3]; belinostat 0.225 μM,30.59%
